# Results from the supplement of paper PMC4862054.
# Key:
# Conditions in all cases: incubation time: 72 h
# BT-474 [1] = assay: normalised response (% of control), CellTox Green; higher = less cell death (100 = DMSO, 0 = benzethonium chloride kill control)
# How it was run: (§1)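 Each entry is the normalised signal at a single concentration within a series. The series comprised 5 concentrations in 10-fold steps over a compound-specific 10,000-fold range, placed in 384-well plates into which breast cancer cell lines were seeded as 20 µl suspension and incubated 72 h. CellTox Green (485/520 nm) fluorescence and then CellTiter-Glo luminescence were read, with signals normalised per plate to 0.1 % DMSO (100) and a positive kill control (0).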
# BT-549 [2] = assay: as above
# How it was run: as §1
# CAL-120 [3] = assay: as above
# How it was run: as §1
# CAL-148 [4] = assay: as above
# How it was run: as §1
# CAL-51 [5] = assay: as above
# How it was run: as §1
# CAL-85-1 [6] = assay: as above
# How it was run: as §1
# DU-4475 [7] = assay: as above
# How it was run: as §1
# HCC1143 [8] = assay: as above
# How it was run: as §1
# HCC1599 [9] = assay: as above
# How it was run: as §1
# HCC1937 [10] = assay: as above
# How it was run: as §1
# HDQ-P1 [11] = assay: as above
# How it was run: as §1
# Hs578T [12] = assay: as above
# How it was run: as §1
# MCF-10A [13] = assay: as above
# How it was run: as §1
# MDA-MB-231 [14] = assay: as above
# How it was run: as §1
# MDA-MB-436 [15] = assay: as above
# How it was run: as §1
# MDA-MB-453 [16] = assay: as above
# How it was run: as §1
# MDA-MB-468 [17] = assay: as above
# How it was run: as §1
# MFM-223 [18] = assay: as above
# How it was run: as §1
# BT-474 [19] = assay: normalised response (% of control), CellTiter-Glo; higher = more viable cells (100 = DMSO, 0 = benzethonium chloride kill control)
# How it was run: as §1
# BT-549 [20] = assay: as above
# How it was run: as §1
# CAL-120 [21] = assay: as above
# How it was run: as §1
# CAL-148 [22] = assay: as above
# How it was run: as §1
# CAL-51 [23] = assay: as above
# How it was run: as §1
# CAL-85-1 [24] = assay: as above
# How it was run: as §1
# DU-4475 [25] = assay: as above
# How it was run: as §1
# HCC1143 [26] = assay: as above
# How it was run: as §1
# HCC1599 [27] = assay: as above
# How it was run: as §1
# HCC1937 [28] = assay: as above
# How it was run: as §1
# HDQ-P1 [29] = assay: as above
# How it was run: as §1
# Hs578T [30] = assay: as above
# How it was run: as §1
# MCF-10A [31] = assay: as above
# How it was run: as §1
# MDA-MB-231 [32] = assay: as above
# How it was run: as §1
# MDA-MB-436 [33] = assay: as above
# How it was run: as §1
# MDA-MB-453 [34] = assay: as above
# How it was run: as §1
# MDA-MB-468 [35] = assay: as above
# How it was run: as §1
# MFM-223 [36] = assay: as above
# How it was run: as §1
# SK-BR-3 = assay: as above
# How it was run: as §1
Structure (SMILES),normalised response (BT-474 [1]),normalised response (BT-549 [2]),normalised response (CAL-120 [3]),normalised response (CAL-148 [4]),normalised response (CAL-51 [5]),normalised response (CAL-85-1 [6]),normalised response (DU-4475 [7]),normalised response (HCC1143 [8]),normalised response (HCC1599 [9]),normalised response (HCC1937 [10]),normalised response (HDQ-P1 [11]),normalised response (Hs578T [12]),normalised response (MCF-10A [13]),normalised response (MDA-MB-231 [14]),normalised response (MDA-MB-436 [15]),normalised response (MDA-MB-453 [16]),normalised response (MDA-MB-468 [17]),normalised response (MFM-223 [18]),normalised response (BT-474 [19]),normalised response (BT-549 [20]),normalised response (CAL-120 [21]),normalised response (CAL-148 [22]),normalised response (CAL-51 [23]),normalised response (CAL-85-1 [24]),normalised response (DU-4475 [25]),normalised response (HCC1143 [26]),normalised response (HCC1599 [27]),normalised response (HCC1937 [28]),normalised response (HDQ-P1 [29]),normalised response (Hs578T [30]),normalised response (MCF-10A [31]),normalised response (MDA-MB-231 [32]),normalised response (MDA-MB-436 [33]),normalised response (MDA-MB-453 [34]),normalised response (MDA-MB-468 [35]),normalised response (MFM-223 [36]),normalised response (SK-BR-3)
N#Cc1ccc(C(c2ccc(C#N)cc2)n2cncn2)cc1 [Letrozole] (1000 nM),100%,89.6%,103%,101%,98.2%,105%,100%,101%,85.3%,67.6%,102%,106%,114%,98.9%,87.6%,96.4%,75.9%,88.4%,94.4%,103%,99%,94.7%,80.8%,98.8%,98.8%,108%,104%,103%,102%,97.1%,101%,96.5%,105%,99.3%,103%,100%,99.5%
O=C(O)C1(C(=O)O)CCC1.[NH2-].[NH2-].[Pt+2] [Carboplatin] (1000 nM),97.7%,62%,104%,105%,106%,117%,107%,101%,104%,113%,100%,103%,115%,106%,95.4%,111%,143%,89.6%,100%,94.2%,95.3%,96.5%,108%,95.7%,93.9%,101%,96.4%,95%,95.4%,95.1%,105%,94.4%,98.3%,97.6%,100%,101%,103%
Oc1ncc(N(CCCl)CCCl)c(O)n1 [Uracil mustard] (1000 nM),101%,103%,106%,103%,104%,115%,105%,117%,96%,102%,113%,107%,102%,107%,98.7%,112%,120%,102%,104%,100%,106%,93.9%,113%,99.3%,95.4%,101%,108%,93.8%,105%,99%,118%,96.5%,106%,104%,104%,98.2%,100%
CC[C@H](C)C(=O)O[C@H]1C[C@H](O)C=C2C=C[C@H](C)[C@H](CC[C@@H](O)C[C@@H](O)CC(=O)O)[C@H]21 [Pravastatin] (1000 nM),99.3%,85.2%,100%,99.8%,87.6%,93.4%,99%,59%,95.4%,95.4%,112%,95.2%,108%,85.4%,-66.6%,105%,134%,98.5%,85.8%,96.3%,95.3%,87.6%,54.5%,95.5%,82.1%,94.3%,70.8%,86.9%,92.2%,98.4%,96.1%,89.9%,18.9%,87.7%,89.9%,85.5%,86.2%
Nc1nc2[nH]cc(CCc3ccc(C(=O)N[C@@H](CCC(=O)O)C(=O)O)cc3)c2c(=O)[nH]1 [Pemetrexed] (1000 nM),99.5%,82.9%,100%,89.9%,98.2%,105%,98.2%,115%,92%,112%,110%,101%,103%,88%,108%,106%,122%,103%,54.4%,97.1%,88.1%,95.7%,90.6%,54.5%,89.5%,93.3%,67.4%,70.3%,83.2%,17.1%,97.6%,65.6%,80.7%,92.2%,90%,91.5%,68.2%
C=CCc1cccc(/C=N/NC(=O)CN2CCN(Cc3ccccc3)CC2)c1O [PAC-1] (1000 nM),98.8%,61.6%,102%,104%,73.1%,105%,101%,119%,98.4%,92.5%,112%,104%,112%,107%,89.7%,106%,128%,102%,97.9%,75.1%,97.5%,101%,67.2%,98.5%,102%,103%,120%,92.7%,93.3%,103%,116%,96.8%,86%,93.6%,101%,100%,109%
